Like-named read-outs stand apart in the source and are kept apart here. Marks after values point to notes of the source that are not given here.
Columns and labels:
DPPH radical scavenging = assay type: biochemical; details: mean ± standard error
Protocol: (§1) N,N-dimethyl-p-phenylenediamine (DMPD) and 2,2′-azino-bis(3-ethylbenzothiazolin-6-sulfonic acid (ABTS) cation radical scavenging and ferric reducing antioxidant power (FRAP) were measured using kits from Bioquochem (Llanera-Asturias, Spain). Antiradical activity by 2,2-diphenyl-1-picrylhydrazyl radical scavenging assay, reducing capacity using Folin–Ciocalteau reagent (FCR), and anti-lipoperoxidant activity using inhibition of lipid peroxidation of rat liver microsomes induced by tert-butyl hydroperoxide were determined as described previously with modifications described in detail in our previous research.

[1] = ABTS+ cation radical scavenging; assay type: biochemical; details: vitamin C equivalents, mean ± standard error
Protocol: as §1

[2] = Folin–Ciocalteu reagent (FCR) reduction; assay type: biochemical; details: Folin–Ciocalteau reagent reduction, gallic acid equivalents; mean ± standard error
Protocol: as §1

[3] = DMPD+ cation radical scavenging; assay type: biochemical; details: vitamin C equivalents, mean ± standard error
Protocol: as §1

[4] = Ferric reducing antioxidant power (FRAP); assay type: biochemical; details: equivalents of Fe^2+, mean ± standard error
Protocol: as §1

[5] = Inhibition of lipoperoxidation (Lpx) induced by tert-butyl hydroperoxide; assay type: biochemical; details: rat liver microsomal membranes, mean ± standard error
Protocol: as §1

[6] = Log p, octan-1-ol / phosphate buffer partition; assay type: physicochemical; details: octan-1-ol / 6.6 mM phosphate buffer pH 7.4, 25 °C
Protocol: The hydrophobicity of the compounds was determined by measuring their partition coefficient P in a mixture of two immiscible phases—octan-1-ol and 6.6 mM phosphate buffer pH 7.4. Stock solutions (0.5 mM) were prepared in octan-1-ol (parent compounds) and in the buffer (sulfated compounds). The stock solutions (150 µL) were mixed with 150 µL of the immiscible phase in microcentrifuge tubes (1.5 mL); shaken for 2 h (750 rpm, 25 °C); and after incubation, the phases were separated. Water phases were diluted 1:1 with the mobile phase (acetonitrile/deionized water/HCO2H, 5:95:0.1; v/v) and analyzed by HPLC using the gradient G3 (see Section 3.1.3). Octan-1-ol phases were evaporated in the stream of air (70 °C), then dissolved in 10 µL of DMSO, and mixed with 90 µL of mobile phase and analyzed by HPLC. The log p values were calculated from the respective peak heights (h) using the formula log p = log(hoctanol/hbuffer). For comparison, log p values were calculated using the Molinspiration property engine v2016.10 (http://www.molinspiration.com, Molinspiration Cheminformatics, Slovensky Grob, Slovakia) (access on 26th October 2017).

[7] = biological target: T1, aryl sulfotransferase from rat liver (AST IV) (Rattus norvegicus, UniProt P17988); experiment: Substrate specificity of AST IV (whole E. coli cells, p-NPS donor); assay type: in vitro ADME; design: key: +: isolated sulfated product(s) and/or release of p-nitrophenol (p-NP); –: no formation of p-NP and/or isolated sulfated products; details: whole E. coli cells expressing AST IV, 37 °C, 72 h
T1 construct: made in house; host or cells: E. coli BL21 (DE3) Gold (whole cells used as catalyst)
T1 sequence (P17988 whole entry): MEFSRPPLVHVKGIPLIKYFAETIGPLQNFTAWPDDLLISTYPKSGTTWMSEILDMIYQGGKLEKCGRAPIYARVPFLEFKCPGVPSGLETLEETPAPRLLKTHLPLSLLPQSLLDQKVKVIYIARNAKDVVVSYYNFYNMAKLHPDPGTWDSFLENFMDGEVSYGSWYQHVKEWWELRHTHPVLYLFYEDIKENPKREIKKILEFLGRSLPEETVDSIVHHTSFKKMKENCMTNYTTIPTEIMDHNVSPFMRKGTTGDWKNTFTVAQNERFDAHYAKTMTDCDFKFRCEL
Protocol: The plasmid bearing astIV gene was kindly provided by Prof. L. Elling, RWTH Aachen, Germany. The enzyme was expressed in E. coli BL21 (DE3) Gold as described, with modifications reported in our previous work. Whole E. coli cells producing the enzyme, freshly prepared according to the literature, were employed in the biotransformation experiments as a catalyst.
Silybin, silybin A, silybin B, silychristin, and silydianin (separately, each 50 mg, 0.104 mmol) and p-nitrophenyl sulfate (p-NPS, 35 mg, 0.136 mmol; Sigma-Aldrich, St. Louis, MO, USA) were dissolved in 3 mL DMSO, and 2 g (wet based) of whole cells expressing AST IV resuspended in K-phosphate buffer (pH 7.5, 17 mL) were added. The reaction mixture was incubated on a rotary shaker at 37 °C for 24 h. The cells were then removed by centrifugation (30 min, 5000 rpm, 5404 R Eppendorf, Germany), a new portion of fresh cells (2 g in 15 mL, wet based, resuspended in K-phosphate buffer) were added to the supernatant and incubated for 24 h. This step was repeated once more with a total reaction time of 72 h. The reaction was monitored by HPLC and after 72 h, the reaction mixtures, containing the sulfated product(s), were purified by preparative HPLC employing Asahipak GS-310 20F (Shodex, Tokyo, Japan) column with isocratic elution with 100% methanol. The fraction containing the putative sulfated product(s) was evaporated, dissolved in 1 mL of 80% methanol, and loaded onto a Sephadex LH-20 column (15 g dry weight, 12 mm i.d.) packed and eluted with 80% methanol. Only one sulfated product was obtained; silybin B 20-O-sulfate (14.5 mg, 0.03 mmol, yield 25%), whose identity was confirmed by comparison with previously published data.

[8] = Stability of the isolated sulfate; assay type: physicochemical; details: after isolation
Protocol: It quickly decomposed into a mixture of at least five products and, therefore, it was not studied further.
Silydianin (150 mg, 0.311 mmol) was sulfated using the same procedure as for silybin. Silydianin-19-O-sulfate was obtained as a yellowish solid (101 mg, 58.3%). Its structure was determined by HRMS (m/z calcd. for C25H21O13 S 561.07083, found 561.07141) and NMR (see Figure S13 and Table S5, Supplementary Material).

[9] = design: method as in PMID 26260337, PMID 16919302; details: read-out: DPPH scavenging IC50; cited from earlier work

SMILES	IC50 (DPPH radical scavenging) [µM]	ABTS^+ [CE] [1]	FCR [GAE] [2]	DMPD^+ [CE] [3]	FRAP [Fe^2+] [4]	IC50 [5] [µM]	logP at 2 h [6]	Formation of p-NP [7]	DMPD^+ [CE] ([3]; listed as silychristin)	Stability of the compound [8]	Stability of the compound ([8]; listed as silydianin-19-O-sulfate)	IC50 [9] [µM]
COc1cc([C@@H]2Oc3cc([C@H]4Oc5cc(O)cc(O)c5C(=O)[C@@H]4O)ccc3O[C@H]2CO)ccc1O [Silybin B, silybin B, reference compound]	546 ± 17	0.97 ± 0.05 ^i CE	0.36 ± 0.03 ^k GAE	1.09 ± 0.01 ^n CE	0.04 ± 0.00 ^q Fe^2+	68.6 ± 2.2	2.17	+ ^a	–	–	–	–
COc1cc(C2Oc3c(O)cc([C@H]4Oc5cc(O)cc(O)c5C(=O)[C@@H]4O)cc3C2CO)ccc1O (some centres unmarked) [Silychristin, reference compound]	37.1 ± 3.1	1.50 ± 0.09 CE	1.13 ± 0.23 ^m GAE	1.50 ± 0.02^o CE	0.64 ± 0.06 Fe^2+	17.9 ± 0.7	1.47	+ ^a	1.5	–	–	–
COc1cc(C2C3C=C(C4Oc5cc(O)cc(O)c5C(=O)C4O)C4C2COC4(O)C3=O)ccc1OS(=O)(=O)O (centres unmarked) [Silydianin-19-O-sulfate]	–	–	–	–	–	–	–	–	–	unstable	extremely unstable	–
O=C1c2c(O)cc(O)cc2OC(c2ccc(O)c(O)c2)C1O (centres unmarked) [taxifolin]	–	–	–	–	–	–	–	–	–	–	–	6 to 10
